Test results taken from patent US20160175313A1, “ENTECAVIR MICROSPHERES AND PHARMACEUTICAL COMPOSITION FOR PARENTERAL ADMINISTRATION CONTAINING SAME” (priority 2013, published 2016).

Tests used:
HBV = settings: first-time patients, oral preparations, cited from earlier work
[1] = orally administered; cited from earlier work
rats = system: rats
Experimental: A test was conducted to determine whether local irritation is caused by subcutaneous administration of entecavir into rats.
After entecavir (2.33 mg/kg/day) was subcutaneously injected into 15 male rats per each group, mortality, common symptoms, body weight, autopsy and histopathological evaluation on 1, 4, 5, 8 and 12 weeks were checked to compare with the control group in which excipient was administered.

[2] = Solubility of entecavir in organic solvent; format: physicochemical
[3] = rat, in vivo, sc, 2.33 mg/kg/day

## C=C1[C@H](CO)[C@@H](O)C[C@@H]1n1cnc2c(=O)[nH]c(N)nc21 [entecavir, Entecavir]
HBV; 1 year
  patients HBV-undetectable after 1 year of administration: about 70%
HBV; 3 years
  patients HBV-undetectable after 3 years: about 90%
[1]
  bioavailability: ~100%
rats; male rats, 2.33 mg/kg/day subcutaneous, checked up to 12 weeks
  mortality: no dead animal was observed
rats; rat, in vivo, sc
  local toxicity, overall conclusion: did not show harmful local toxicity
rats; [3]
  abnormal symptoms and abnormal body weight change related to administration: not observed
  autopsy results: no abnormal finding
  inflammation (histopathology): inflammation was observed
  recovery from inflammation: all animals recovered from inflammation
rats; rats, 4 weeks after subcutaneous administration, 2.33 mg/kg/day
  injection site microscopy (H&E staining), inflammatory cells: some subcutaneous tissue inflammatory cells were observed
[2]
  solubility in methylene chloride: insoluble
